Experimental data published in ChEMBL document CHEMBL1146585, “Copacamphane, picrotoxane, and alloaromadendrane sesquiterpene glycosides and phenolic glycosides from Dendrobium moniliforme” (J Nat Prod, 2003).
Active and inactive are the calls of the source. No cut-off for these calls is given here.

Experiments:
[1] = Cytotoxicity against T cell; assay type: cell-based
B-cell = experiment: Immunoregulatory activity assessed as stimulation of B cell proliferation at 10 uM; assay type: functional, cell-based
T-cell = experiment: Immunoregulatory activity assessed as inhibition of T cell proliferation at 0.1 uM; assay type: functional, cell-based

SMILES: CC(C)[C@H]1[C@@H]2OC(=O)[C@H]1[C@H]1C[C@H](O[C@@H]3O[C@H](CO)[C@@H](O)[C@H](O)[C@H]3O)[C@]3(CO3)[C@@]1(C)[C@H]2O [DENDROMONILISIDE C]
- Activity [1]: Non-toxic
- Activity (B-cell): Active
- Activity (T-cell): Active

SMILES: COc1cc(CO)ccc1O[C@@H]1O[C@H](CO)[C@@H](O)[C@H](O)[C@H]1O [VANILLOLOSIDE]
- Activity [1]: Non-toxic
- Activity (B-cell): Active
- Activity (T-cell): Active

SMILES: CC(C)(O)[C@H]1C[C@H](O[C@@H]2O[C@H](CO)[C@@H](O)[C@H](O)[C@H]2O)[C@@]2(C)[C@@H]3CC[C@]2(C)C(=O)[C@@H]31 [DENDROMONILISIDE A]
- Activity [1]: Non-toxic
- Activity (B-cell): Active
- Activity (T-cell): Active
